Assay results reported in US20040110771A1, “7-(r)-aminotriazolopyrimidines, the production thereof and use of the same for combatting phytopathogenic fungi” (priority 2000, published 2004).

Columns and labels:
Assay type in all cases: in vivo
[1] = tested on: Septoria tritici; assay: Protective activity against Septoria foliar blotch disease of wheat caused by Septoria tritici; conditions: wheat seedlings "Riband", inoculated 24 h after spraying, 2 weeks
Method: (§1) The active compounds were prepared separately or jointly as a 10% strength emulsion in a mixture of 70% by weight of cyclohexanone, 20% by weight of Nekanil® LN (Lutensol® AP6, wetting agent having emulsifying and dispersing action based on ethoxylated alkylphenols) and 10% by weight of Wettol® EM (nonionic emulsifier based on ethoxylated castor oil) and diluted with water to the desired concentration.
Leaves of potted wheat seedlings of the cultivar “Riband” were sprayed to runoff point with an aqueous preparation of active compound which had been prepared from a stock solution made of 10% of active compound, 85% of cyclohexanone and 5% of emulsifier. 24 hours after the spray coating had dried on, they were inoculated with an aqueous spore suspension of Septoria tritici. The suspension contained 2.0×10^6 spores/ml. The test plants were then placed in a greenhouse at 18-22° C. and a relative atmospheric humidity of close to 100%. After 2 weeks, the extent of the development of the disease was determined visually in % infection of the entire leaf area.

[2] = tested on: Pyrenophora teres; assay: Activity against net blotch of barley caused by Pyrenophora teres; conditions: barley seedlings "Igri", inoculated 24 h after spraying, 6 days
Method: as §1
Leaves of potted barley seedlings of the cultivar “Igri” were sprayed to runoff point with an aqueous preparation of active compound which had been prepared from a stock solution made of 10% of active compound, 85% of cyclohexanone and 5% of emulsifier and were inoculated 24 hours after the spray coating had dried on with an aqueous spore suspension of Pyrenophora teres, the net blotch pathogen. The test plants were then placed in a greenhouse at 20-24° C. and 95-100% relative atmospheric humidity. After 6 days, the extent of the development of the disease was determined visually in % infection of the entire leaf area.

[3] = tested on: Blumeria graminis forma specialis tritici; assay: Activity against mildew of wheat caused by Blumeria graminis forma specialis tritici; conditions: wheat seedlings "Kanzler", dusted with spores 24 h after spraying, 7 days
Method: as §1
Leaves of potted wheat seedlings of the cultivar “Kanzler” were sprayed to runoff point with an aqueous preparation of active compound which had been prepared from a stock solution made of 10% of active compound, 85% of cyclohexanone and 5% of emulsifier and were dusted 24 hours after the spray coating had dried on with spores of mildew of wheat (Blumeria graminis forma specialis tritici). The test plants were then placed in a greenhouse at 20-24° C. and 60-90% relative atmospheric humidity. After 7 days, the extent of the mildew development was determined visually in % infection of the entire leaf area.

[4] = tested on: Puccinia recondita; assay: Curative activity against brown rust of wheat caused by Puccinia recondita; conditions: curative spray 24 h after inoculation, wheat seedlings "Kanzler", 7 days
Method: as §1
Leaves of potted wheat seedlings of the cultivar “Kanzler” were dusted with spores of brown rust (Puccinia recondita). The pots were then placed in a chamber with high atmospheric humidity (90 to 95%) at 20-22° C. for 24 hours. During this period, the spores germinated and the germinal tubes penetrated into the leaf tissue. The following day, the infected plants were sprayed to runoff point with an aqueous preparation of active compound which had been prepared from a stock solution made of 10% of active compound, 85% of cyclohexanone and 5% of emulsifier. After the spray coating had dried on, the test plants were cultivated in a greenhouse at 20-22° C. and 65-70% relative atmospheric humidity for 7 days. The extent of the rust fungus development on the leaves was then determined.

Compound: C[C@@H](Nc1c(-c2ccccc2Cl)c(Cl)nc2ncnn12)C(C)(C)C (single isomer, unassigned) [I.-44b]
- % infection of the leaves after application of an aqueous preparation comprising . . . ppm of active compound ([1]; 16 ppm): 30%
- % infection of the leaves after application of an aqueous preparation comprising . . . ppm of active compound ([1]; 63 ppm): 10%
- % infection of the leaves after application of an aqueous preparation comprising . . . ppm of active compound ([1]; 250 ppm): 10%

Compound: CC(C)C(C)Nc1c(-c2c(Cl)cccc2Cl)c(Cl)nc2ncnn12 (stereo not shown) [I.-8]
- % infection of the leaves after application of an aqueous preparation comprising . . . ppm of active compound ([1]; 16 ppm): 70%
- % infection of the leaves after application of an aqueous preparation comprising . . . ppm of active compound ([1]; 63 ppm): 30%
- % infection of the leaves after application of an aqueous preparation comprising . . . ppm of active compound ([1]; 250 ppm): 30%
- % infection of the leaves after application of an aqueous preparation comprising . . . ppm of active compound ([2]; 16 ppm): 40%
- % infection of the leaves after application of an aqueous preparation comprising . . . ppm of active compound ([2]; 63 ppm): 15%
- % infection of the leaves after application of an aqueous preparation comprising . . . ppm of active compound ([2]; 250 ppm): 15%

Compound: COc1cc(F)c(-c2c(Cl)nc3ncnn3c2N[C@H](C)C(C)C)c(F)c1 [I.-17]
- % infection of the leaves after application of an aqueous preparation comprising . . . ppm of active compound ([1]; 16 ppm): 10%
- % infection of the leaves after application of an aqueous preparation comprising . . . ppm of active compound ([1]; 63 ppm): 10%
- % infection of the leaves after application of an aqueous preparation comprising . . . ppm of active compound ([1]; 250 ppm): 10%
- % infection of the leaves after application of an aqueous preparation comprising . . . ppm of active compound ([3]; 16 ppm): 60%
- % infection of the leaves after application of an aqueous preparation comprising . . . ppm of active compound ([3]; 63 ppm): 60%
- % infection of the leaves after application of an aqueous preparation comprising . . . ppm of active compound ([3]; 250 ppm): 60%

Compound: COc1cc(F)c(-c2c(Cl)nc3ncnn3c2N[C@H](C)C(C)(C)C)c(F)c1 [I.-18]
- % infection of the leaves after application of an aqueous preparation comprising . . . ppm of active compound ([1]; 250 ppm): 30%

Compound: CCC(C)Nc1c(-c2c(F)c(F)c(F)c(F)c2F)c(Cl)nc2ncnn12 (stereo not shown) [I.-19]
- % infection of the leaves after application of an aqueous preparation comprising . . . ppm of active compound ([1]; 16 ppm): 50%
- % infection of the leaves after application of an aqueous preparation comprising . . . ppm of active compound ([1]; 63 ppm): 10%
- % infection of the leaves after application of an aqueous preparation comprising . . . ppm of active compound ([1]; 250 ppm): 10%
- % infection of the leaves after application of an aqueous preparation comprising . . . ppm of active compound ([3]; 63 ppm): 7%
- % infection of the leaves after application of an aqueous preparation comprising . . . ppm of active compound ([3]; 250 ppm): 7%
- % infection of the leaves after application of an aqueous preparation comprising . . . ppm of active compound ([2]; 250 ppm): 30%

Compound: CC(C)C(C)Nc1c(-c2ccccc2C(F)(F)F)c(Cl)nc2ncnn12 (stereo not shown) [I.-25]
- % infection of the leaves after application of an aqueous preparation comprising . . . ppm of active compound ([1]; 16 ppm): 0%
- % infection of the leaves after application of an aqueous preparation comprising . . . ppm of active compound ([1]; 63 ppm): 0%
- % infection of the leaves after application of an aqueous preparation comprising . . . ppm of active compound ([1]; 250 ppm): 0%

Compound: CC(Nc1c(-c2ccccc2C(F)(F)F)c(Cl)nc2ncnn12)C(C)(C)C (stereo not shown) [I.-26]
- % infection of the leaves after application of an aqueous preparation comprising . . . ppm of active compound ([1]; 16 ppm): 3%
- % infection of the leaves after application of an aqueous preparation comprising . . . ppm of active compound ([1]; 63 ppm): 0%
- % infection of the leaves after application of an aqueous preparation comprising . . . ppm of active compound ([1]; 250 ppm): 0%

Compound: CC(C)[C@H](C)Nc1c(-c2c(Cl)cccc2Cl)c(Cl)nc2ncnn12 [comparison (S)-amine of I.-8]
- % infection of the leaves after application of an aqueous preparation comprising . . . ppm of active compound ([1]; 16 ppm): 90%
- % infection of the leaves after application of an aqueous preparation comprising . . . ppm of active compound ([1]; 63 ppm): 90%
- % infection of the leaves after application of an aqueous preparation comprising . . . ppm of active compound ([1]; 250 ppm): 90%
- % infection of the leaves after application of an aqueous preparation comprising . . . ppm of active compound ([2]; 16 ppm): 100%
- % infection of the leaves after application of an aqueous preparation comprising . . . ppm of active compound ([2]; 63 ppm): 100%
- % infection of the leaves after application of an aqueous preparation comprising . . . ppm of active compound ([2]; 250 ppm): 100%

Compound: Cc1cccc(F)c1-c1c(Cl)nc2ncnn2c1NC(C)C(C)C [comparison (S)-amine of I.-11b]
- % infection of the leaves after application of an aqueous preparation comprising . . . ppm of active compound ([3]; 63 ppm): 60%
- % infection of the leaves after application of an aqueous preparation comprising . . . ppm of active compound ([3]; 250 ppm): 60%
- % infection of the leaves after application of an aqueous preparation comprising . . . ppm of active compound ([4]; 63 ppm): 100%
- % infection of the leaves after application of an aqueous preparation comprising . . . ppm of active compound ([4]; 250 ppm): 100%
- % infection of the leaves after application of an aqueous preparation comprising . . . ppm of active compound ([2]; 63 ppm): 100%
- % infection of the leaves after application of an aqueous preparation comprising . . . ppm of active compound ([2]; 250 ppm): 100%

Compound: CC[C@H](C)Nc1c(-c2c(F)cc(F)cc2F)c(Cl)nc2ncnn12 [comparison (S)-amine of I.-13]
- % infection of the leaves after application of an aqueous preparation comprising . . . ppm of active compound ([3]; 16 ppm): 100%
- % infection of the leaves after application of an aqueous preparation comprising . . . ppm of active compound ([3]; 63 ppm): 60%
- % infection of the leaves after application of an aqueous preparation comprising . . . ppm of active compound ([4]; 16 ppm): 60%
- % infection of the leaves after application of an aqueous preparation comprising . . . ppm of active compound ([4]; 63 ppm): 3%
- % infection of the leaves after application of an aqueous preparation comprising . . . ppm of active compound ([2]; 16 ppm): 60%

Compound: COc1cc(F)c(-c2c(Cl)nc3ncnn3c2N[C@@H](C)C(C)C)c(F)c1 [comparison (S)-amine of I.-17]
- % infection of the leaves after application of an aqueous preparation comprising . . . ppm of active compound ([1]; 16 ppm): 90%
- % infection of the leaves after application of an aqueous preparation comprising . . . ppm of active compound ([1]; 63 ppm): 90%
- % infection of the leaves after application of an aqueous preparation comprising . . . ppm of active compound ([1]; 250 ppm): 90%
- % infection of the leaves after application of an aqueous preparation comprising . . . ppm of active compound ([3]; 16 ppm): 100%
- % infection of the leaves after application of an aqueous preparation comprising . . . ppm of active compound ([3]; 63 ppm): 100%
- % infection of the leaves after application of an aqueous preparation comprising . . . ppm of active compound ([3]; 250 ppm): 100%

Compound: COc1cc(F)c(-c2c(Cl)nc3ncnn3c2N[C@@H](C)C(C)(C)C)c(F)c1 [comparison (S)-amine of I.-18]
- % infection of the leaves after application of an aqueous preparation comprising . . . ppm of active compound ([1]; 250 ppm): 80%

Compound: CCC(C)Nc1c(-c2ccc(F)cc2C)c(Cl)nc2ncnn12 [comparison (S)-amine of I.-22]
- % infection of the leaves after application of an aqueous preparation comprising . . . ppm of active compound ([3]; 16 ppm): 80%
- % infection of the leaves after application of an aqueous preparation comprising . . . ppm of active compound ([3]; 63 ppm): 70%
- % infection of the leaves after application of an aqueous preparation comprising . . . ppm of active compound ([3]; 250 ppm): 70%
- % infection of the leaves after application of an aqueous preparation comprising . . . ppm of active compound ([4]; 16 ppm): 100%
- % infection of the leaves after application of an aqueous preparation comprising . . . ppm of active compound ([4]; 63 ppm): 100%
- % infection of the leaves after application of an aqueous preparation comprising . . . ppm of active compound ([4]; 250 ppm): 100%
- % infection of the leaves after application of an aqueous preparation comprising . . . ppm of active compound ([2]; 16 ppm): 80%
- % infection of the leaves after application of an aqueous preparation comprising . . . ppm of active compound ([2]; 63 ppm): 7%

Compound: Cc1cc(F)ccc1-c1c(Cl)nc2ncnn2c1N[C@@H](C)C(C)C [comparison (S)-amine of I.-23]
- % infection of the leaves after application of an aqueous preparation comprising . . . ppm of active compound ([3]; 16 ppm): 60%
- % infection of the leaves after application of an aqueous preparation comprising . . . ppm of active compound ([3]; 63 ppm): 60%
- % infection of the leaves after application of an aqueous preparation comprising . . . ppm of active compound ([3]; 250 ppm): 40%
- % infection of the leaves after application of an aqueous preparation comprising . . . ppm of active compound ([4]; 16 ppm): 100%
- % infection of the leaves after application of an aqueous preparation comprising . . . ppm of active compound ([4]; 63 ppm): 100%
- % infection of the leaves after application of an aqueous preparation comprising . . . ppm of active compound ([4]; 250 ppm): 100%
- % infection of the leaves after application of an aqueous preparation comprising . . . ppm of active compound ([2]; 16 ppm): 60%

Compound: CC(C)[C@H](C)Nc1c(-c2ccccc2C(F)(F)F)c(Cl)nc2ncnn12 [comparison (S)-amine of I.-25]
- % infection of the leaves after application of an aqueous preparation comprising . . . ppm of active compound ([1]; 16 ppm): 100%
- % infection of the leaves after application of an aqueous preparation comprising . . . ppm of active compound ([1]; 63 ppm): 100%
- % infection of the leaves after application of an aqueous preparation comprising . . . ppm of active compound ([1]; 250 ppm): 100%

Compound: CC(Nc1c(-c2ccccc2C(F)(F)F)c(Cl)nc2ncnn12)C(C)(C)C [comparison (S)-amine of I.-26]
- % infection of the leaves after application of an aqueous preparation comprising . . . ppm of active compound ([1]; 16 ppm): 100%
- % infection of the leaves after application of an aqueous preparation comprising . . . ppm of active compound ([1]; 63 ppm): 100%
- % infection of the leaves after application of an aqueous preparation comprising . . . ppm of active compound ([1]; 250 ppm): 100%

Compound: CC(Nc1c(-c2ccccc2Cl)c(Cl)nc2ncnn12)C(C)(C)C [comparison (S)-amine of I.-44b]
- % infection of the leaves after application of an aqueous preparation comprising . . . ppm of active compound ([1]; 16 ppm): 80%
- % infection of the leaves after application of an aqueous preparation comprising . . . ppm of active compound ([1]; 63 ppm): 80%
- % infection of the leaves after application of an aqueous preparation comprising . . . ppm of active compound ([1]; 250 ppm): 80%
